ChEMBL document CHEMBL5352395, “The discovery of novel antifungal phenylpyridines derivatives based on CYP53 binding model” (Eur J Med Chem, 2022)
≈ marks a conversion by molar mass, not a printed value. Calls of active or inactive are those of the source. The calls are words filed in the database; no cut-off is given here.

Legend:
[1] = tested on: Candida albicans; assay: Antifungal activity against Candida albicans 17# assessed as reduction in fungal growth; assay type: functional
[2] = tested on: Candida albicans; assay: Induction of apoptosis in Candida albicans ATCC SC5314 assessed as live cells incubated for 24 hrs by Annexin V-FITC/PI staining based flow cytometry method (reference value: 92.69%); assay type: functional
[3] = tested on: Candida albicans; assay: Induction of apoptosis in Candida albicans ATCC SC5314 assessed as mid apoptotic cells incubated for 24 hrs by Annexin V-FITC/PI staining based flow cytometry method (reference value: 1.03%); assay type: functional
[4] = Toxicity in ip dosed mouse assessed as ALT level in plasma administered on day 2,4,6,8 and 10 (reference value: 35.9 +/- 4.6 IU/L); assay type: organism-based; conditions: in vivo, 240 h, time 10 day
[5] = tested on: Candida albicans; assay: Induction of apoptosis in Candida albicans ATCC SC5314 assessed as necrotic cells incubated for 24 hrs by Annexin V-FITC/PI staining based flow cytometry method (reference value: 5.36%); assay type: functional
[6] = tested on: Nakaseomyces glabratus; assay: Antifungal activity against Candida glabrata ATCC 0001 assessed as reduction in fungal growth; assay type: functional
[7] = tested on: Candida albicans; assay: Antifungal activity against Candida albicans ATCC 10231 assessed as reduction in fungal growth; assay type: functional
[8] = tested on: Aspergillus fumigatus; assay: Antifungal activity against Aspergillus fumigatus KM8001 assessed as reduction in fungal growth; assay type: functional
[9] = Toxicity in ip dosed mouse assessed as pathological damage in lungs administered on day 2,4,6,8,10 and measured on day 12 by H and E staining based analysis; assay type: organism-based; conditions: in vivo, 288 h, time 12 day
[10] = Toxicity in ip dosed mouse assessed as pathological damage in kidneys administered on day 2,4,6,8,10 and measured on day 12 by H and E staining based analysis; assay type: organism-based; conditions: in vivo, 288 h, time 12 day
[11] = tested on: Candida albicans; assay: Antifungal activity against Candida albicans ATCC SC5314 infected in mouse assessed as disappearance of nuclear aggregation phenomenon administered intraperitoneally on day 2,4,6,8 and 10 and measured after 12 days by H and E/GMS staining based analysis; assay type: functional, organism-based; conditions: route ip, time 12.0 day
[12] = Inhibition of CYP53 in Candida albicans ATCC SC5314 assessed as benzoate level at 8 ug/ml incubated for 16 hrs by LC-MS analysis (Rvb=11.4%); assay type: ADME; parameters: scale not given: the % may be the effect or the level left; conditions: at 8 µg/mL
[13] = tested on: Candida albicans; assay: Antifungal activity against Candida albicans ATCC SC5314 infected in mouse assessed as reduction in fungal infection administered intraperitoneally on day 2,4,6,8 and 10 and measured after 12 days; assay type: functional, organism-based; conditions: route ip, time 12.0 day
[14] = Toxicity in ip dosed mouse assessed as pathological damage in liver administered on day 2,4,6,8,10 and measured on day 12 by H and E staining based analysis; assay type: organism-based; conditions: in vivo, 288 h, time 12 day
[15] = Toxicity in ip dosed mouse assessed as increase in body weight administered for 10 days; assay type: organism-based; conditions: in vivo, 240 h, time 10 day
[16] = tested on: Candida albicans; assay: Induction of apoptosis in Candida albicans ATCC SC5314 assessed as late apoptotic cells incubated for 24 hrs by Annexin V-FITC/PI staining based flow cytometry method (reference value: 1.22%); assay type: functional
[17] = Inhibition of CYP53 in Candida albicans ATCC SC5314 assessed as 4-hydroxybenzoate level at 8 ug/ml incubated for 16 hrs by LC-MS analysis (Rvb=82.7%); assay type: ADME; parameters: scale not given: the % may be the effect or the level left; conditions: at 8 µg/mL
[18] = Toxicity in ip dosed mouse assessed as AST level in plasma administered on day 2,4,6,8 and 10 (reference value: 60.3 +/- 5.4 IU/L); assay type: organism-based; conditions: in vivo, 240 h, time 10 day
[19] = tested on: Candida albicans; assay: Antifungal activity against Candida albicans ATCC SC5314 assessed as reduction in fungal cell proliferation by measuring cell count (reference value: 235); assay type: functional
[20] = tested on: Candida albicans; assay: Antifungal activity against Candida albicans ATCC SC5314 infected in mouse assessed as reduction in fungal growth in infection region administered intraperitoneally on day 2,4,6,8 and 10 and measured after 12 days by H and E/GMS staining based analysis; assay type: functional, organism-based; conditions: route ip, time 12.0 day
[21] = Toxicity in ip dosed mouse assessed as blood urea nitrogen level in plasma administered on day 2,4,6,8 and 10 (reference value: 7.4 +/ -0.6 mmol/L); assay type: organism-based; conditions: in vivo, 240 h, time 10 day
[22] = tested on: Candida albicans; assay: Antifungal activity against Candida albicans 901 assessed as reduction in fungal growth; assay type: functional
[23] = tested on: Pichia kudriavzevii; assay: Antifungal activity against Candida krusei ATCC 6258 assessed as reduction in fungal growth; assay type: functional
[24] = Toxicity in ip dosed mouse assessed as pathological damage in heart administered on day 2,4,6,8,10 and measured on day 12 by H and E staining based analysis; assay type: organism-based; conditions: in vivo, 288 h, time 12 day
[25] = Toxicity in ip dosed mouse assessed as pathological damage in spleen administered on day 2,4,6,8,10 and measured on day 12 by H and E staining based analysis; assay type: organism-based; conditions: in vivo, 288 h, time 12 day
[26] = tested on: Candida albicans; assay: Antifungal activity against Candida albicans ATCC SC5314 infected in mouse assessed as recovery of regular cell distribution administered intraperitoneally on day 2,4,6,8 and 10 and measured after 12 days by H and E/GMS staining based analysis; assay type: functional, organism-based; conditions: route ip, time 12.0 day
[27] = Inhibition of CYP53 in Candida albicans ATCC SC5314 assessed as unknown sterol level at 8 ug/ml incubated for 16 hrs by LC-MS analysis (Rvb=5.9%); assay type: ADME; parameters: scale not given: the % may be the effect or the level left; conditions: at 8 µg/mL
[28] = tested on: Candida albicans; assay: Induction of mitochondrial membrane potential loss in Candida albicans ATCC SC5314 assessed as polarized cells at 1 uM/ml incubated for 24 hrs by JC-1 staining based flow cytometry analysis (reference value: 93.17%); assay type: functional
[29] = tested on: Candida albicans; assay: Induction of morphological changes in Candida albicans ATCC SC5314 assessed as rupture of cell membranes at 1 uM/ml incubated for 72 hrs by transmission electron microscopy; assay type: functional, organism-based
[30] = tested on: Candida albicans; assay: Antifungal activity against Candida albicans ATCC SC5314 assessed as induction of ROS production by measuring increase in fluorescence intensity; assay type: functional, organism-based
[31] = tested on: Candida albicans; assay: Induction of morphological changes in Candida albicans ATCC SC5314 assessed as appearance of cell wall and membrane remnants at 1 uM/ml incubated for 96 hrs by transmission electron microscopy; assay type: functional, organism-based
[32] = tested on: Candida albicans; assay: Induction of morphological changes in Candida albicans ATCC SC5314 assessed as disappearance of marginal region of fungal cells at 1 uM/ml incubated for 48 hrs by transmission electron microscopy; assay type: functional, organism-based
[33] = tested on: Candida albicans; assay: Induction of morphological changes in Candida albicans ATCC SC5314 assessed as leakage of endogenous substances in fungal cells at 1 uM/ml incubated for 72 hrs by transmission electron microscopy; assay type: functional, organism-based
[34] = tested on: Candida albicans; assay: Induction of morphological changes in Candida albicans ATCC SC5314 assessed as reduction in cell wall thickness at 1 uM/ml incubated for 48 hrs by transmission electron microscopy; assay type: functional, organism-based
[35] = tested on: Candida albicans; assay: Antifungal activity against Candida albicans ATCC SC5314 assessed as reduction in fungal cell proliferation by measuring cell count (reference value: 216); assay type: functional
[36] = tested on: Candida albicans; assay: Induction of morphological changes in Candida albicans ATCC SC5314 assessed as increase in cell permeability at 1 uM/ml incubated for 48 hrs by transmission electron microscopy; assay type: functional, organism-based

COC(=O)c1ccc(C(=O)NCC(=O)Nc2ccncc2)cc1
MIC [1]: 2 µg/mL (≈ 6.38 µM) | Activity [2]: 65.51% | Activity [3]: 0.46% | Activity [4]: 42.8 IU/L | Activity [5]: 33.06% | MIC [6]: 1 µg/mL (≈ 3.19 µM) | MIC [7]: 1 µg/mL (≈ 3.19 µM) | MIC [8]: 4 µg/mL (≈ 12.8 µM) | Activity [9]: Non-Toxic | Activity [10]: Non-Toxic | Activity [11]: Active | Activity [12]: 64.1% | Activity [13]: Active | Activity [14]: Non-Toxic | Activity [15]: Toxic | Activity [16]: 0.97% | Activity [17]: 29.5% | Activity [18]: 68.4 IU/L | Activity [19]: 112 | Activity [20]: Active | Activity [21]: 6.6 mmol/L | MIC [22]: 2 µg/mL (≈ 6.38 µM) | MIC [23]: 0.5 µg/mL (≈ 1.6 µM) | Activity [24]: Non-Toxic | Activity [25]: Non-Toxic | Activity [26]: Active | Activity [27]: 6.4% | Activity [28]: 65.59%

OC(Cn1cncn1)(Cn1cncn1)c1ccc(F)cc1F [FLUCONAZOLE]
MIC [1]: > 16 µg/mL | MIC [6]: 0.5 µg/mL (≈ 1.63 µM) | MIC [7]: 0.5 µg/mL (≈ 1.63 µM) | MIC [8]: 4 µg/mL (≈ 13.1 µM) | MIC [22]: > 16 µg/mL | MIC [23]: 0.5 µg/mL (≈ 1.63 µM)

CC1CCN(C(=O)/C=C/c2ccc(C(=O)NC(C)C(=O)Nc3ccncc3)cc2)CC1 (stereo unspecified)
MIC [1]: 8 µg/mL (≈ 19 µM) | MIC [6]: 4 µg/mL (≈ 9.51 µM) | MIC [7]: 2 µg/mL (≈ 4.76 µM) | MIC [8]: 4 µg/mL (≈ 9.51 µM) | MIC [22]: 4 µg/mL (≈ 9.51 µM) | MIC [23]: 4 µg/mL (≈ 9.51 µM)

CC1CCN(C(=O)/C=C/c2ccc(C(=O)NCC(=O)Nc3ccncc3)cc2)CC1
MIC [1]: 8 µg/mL (≈ 19.7 µM) | MIC [6]: 1 µg/mL (≈ 2.46 µM) | MIC [7]: 1 µg/mL (≈ 2.46 µM) | MIC [8]: 8 µg/mL (≈ 19.7 µM) | MIC [22]: 4 µg/mL (≈ 9.84 µM) | MIC [23]: 2 µg/mL (≈ 4.92 µM)

CCC(C)C(NC(=O)c1ccc(/C=C/C(=O)N2CCC(C)CC2)cc1)C(=O)Nc1ccncc1 (stereo unspecified)
MIC [1]: 4 µg/mL (≈ 8.65 µM) | MIC [6]: 2 µg/mL (≈ 4.32 µM) | MIC [7]: 2 µg/mL (≈ 4.32 µM) | MIC [8]: > 16 µg/mL | MIC [22]: 8 µg/mL (≈ 17.3 µM) | MIC [23]: 1 µg/mL (≈ 2.16 µM)

CC1CCN(C(=O)c2ccc(C(=O)NC(C)C(=O)Nc3ccncc3)cc2)CC1 (stereo unspecified)
MIC [1]: 2 µg/mL (≈ 5.07 µM) | Activity [29]: Active | Activity [30]: Active | Activity [2]: 58.17% | Activity [3]: 0.31% | Activity [4]: 47.4 IU/L | Activity [5]: 40.61% | Activity [31]: Active | MIC [6]: 0.5 µg/mL (≈ 1.27 µM) | Activity [32]: Active | MIC [7]: 0.5 µg/mL (≈ 1.27 µM) | MIC [8]: 2 µg/mL (≈ 5.07 µM) | Activity [33]: Active | Activity [9]: Non-Toxic | Activity [10]: Non-Toxic | Activity [11]: Active | Activity [34]: Active | Activity [12]: 68.5% | Activity [13]: Active | Activity [14]: Non-Toxic | Activity [35]: 123 | Activity [15]: Toxic | Activity [16]: 0.91% | Activity [17]: 23.3% | Activity [18]: 53.7 IU/L | Activity [36]: Active | Activity [20]: Active | Activity [21]: 6.1 mmol/L | MIC [22]: 2 µg/mL (≈ 5.07 µM) | MIC [23]: 1 µg/mL (≈ 2.54 µM) | Activity [24]: Non-Toxic | Activity [25]: Non-Toxic | Activity [26]: Active | Activity [27]: 8.2% | Activity [28]: 68.3%

CC1CCN(C(=O)c2ccc(C(=O)NCC(=O)Nc3ccncc3)cc2)CC1
MIC [1]: 4 µg/mL (≈ 10.5 µM) | MIC [6]: 2 µg/mL (≈ 5.26 µM) | MIC [7]: 1 µg/mL (≈ 2.63 µM) | MIC [8]: 4 µg/mL (≈ 10.5 µM) | MIC [22]: 4 µg/mL (≈ 10.5 µM) | MIC [23]: 0.5 µg/mL (≈ 1.31 µM)

CCC(C)C(NC(=O)c1ccc(C(=O)N2CCC(C)CC2)cc1)C(=O)Nc1ccncc1 (stereo unspecified)
MIC [1]: 4 µg/mL (≈ 9.16 µM) | MIC [6]: 2 µg/mL (≈ 4.58 µM) | MIC [7]: 1 µg/mL (≈ 2.29 µM) | MIC [8]: 8 µg/mL (≈ 18.3 µM) | MIC [22]: 8 µg/mL (≈ 18.3 µM) | MIC [23]: 1 µg/mL (≈ 2.29 µM)

CCC(C)C(NC(=O)c1ccc(C(=O)OC)cc1)C(=O)Nc1ccncc1 (stereo unspecified)
MIC [1]: 2 µg/mL (≈ 5.41 µM) | MIC [6]: 4 µg/mL (≈ 10.8 µM) | MIC [7]: 4 µg/mL (≈ 10.8 µM) | MIC [8]: > 16 µg/mL | MIC [22]: 4 µg/mL (≈ 10.8 µM) | MIC [23]: 2 µg/mL (≈ 5.41 µM)

COC(=O)c1ccc(C(=O)NC(C)C(=O)Nc2ccncc2)cc1 (stereo unspecified)
MIC [1]: 4 µg/mL (≈ 12.2 µM) | MIC [6]: 2 µg/mL (≈ 6.11 µM) | MIC [7]: 0.5 µg/mL (≈ 1.53 µM) | MIC [8]: 4 µg/mL (≈ 12.2 µM) | MIC [22]: 1 µg/mL (≈ 3.05 µM) | MIC [23]: 1 µg/mL (≈ 3.05 µM)
